In assay [1] the target is T1, KRas G12D (Homo sapiens (Human), UniProt P01116, G12D). As to the kind of experiment: KRas G12D Surface Plasmon Resonance (SPR) Binding Assay. The note with it: Biacore T200, immobilized biotinylated KRAS protein, 1:1 binding model.
Target sequence in this assay (P01116-2 other isoform, or with tags, fused parts or gaps G12D): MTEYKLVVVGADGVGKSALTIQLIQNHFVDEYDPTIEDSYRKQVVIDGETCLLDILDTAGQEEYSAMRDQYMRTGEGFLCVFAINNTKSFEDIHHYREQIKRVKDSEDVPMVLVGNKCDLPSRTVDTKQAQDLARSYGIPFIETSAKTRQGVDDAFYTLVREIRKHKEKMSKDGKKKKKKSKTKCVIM
In assay [2] the target is T1, KRas G12D. Briefly: KRas G12D Binding Assay (TR-FRET displacement of Cy5 labelled tracer). To be noted: GDP-loaded KRAS G12D (amino acids 1:169), 60 minute incubation at 22° C. As to the method: After a 60 minute incubation at 22° C., the reaction was measured using a PerkinElmer EnVision multimode plate reader via TR-FRET dual wavelength detection, and the percent of control (POC) calculated using a ratiometric emission factor. […] The POC values were fit to a 4-parameter logistic curve and the IC50 value was determined as the concentration where the curve crosses 50 POC.
ND stands for “not determined.”
Target sequence in this assay (P01116 other isoform, or with tags, fused parts or gaps G12D): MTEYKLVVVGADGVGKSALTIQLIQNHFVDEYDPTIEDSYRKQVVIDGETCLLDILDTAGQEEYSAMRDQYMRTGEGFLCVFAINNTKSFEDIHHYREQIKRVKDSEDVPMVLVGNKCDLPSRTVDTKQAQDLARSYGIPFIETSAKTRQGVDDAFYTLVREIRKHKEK

Counter-ions that a name gives are not always drawn.

At KRas G12D [1], `Oc1cc(-c2ncc3c(N4C[C@H]5CC[C@@H](C4)N5)nc(OCC(F)(F)C(F)F)nc3c2F)c2ccccc2c1` [Example 52, 4-(4-((1R,5S)-3,8-diazabicyclo[3.2.1]octan-3-yl)-8-fluoro-2-(2,2,3,3-tetrafluoropropoxy)pyrido[4,3-d]pyrimidin-7-yl)naphthalen-2-ol] had a Kd of 507 nM. This compound also gave an IC50 on KRas G12D [2] of 318 nM.

Regarding `Cc1cccc2cccc(-c3ncc4c(N5C[C@H]6CC[C@@H](C5)N6)nc(OC[C@@H]5CCCN5C)nc4c3F)c12` [Example 15, 4-((1R,5S)-3,8-diazabicyclo[3.2.1]octan-3-yl)-8-fluoro-7-(8-methylnaphthalen-1-yl)-2-(((S)-1-methylpyrrolidin-2-yl)methoxy)pyrido[4,3-d]pyrimidine], on KRas G12D [1], binding was characterised by a dissociation constant (Kd) of 208 nM. Also, on KRas G12D [2], the IC50 was 260 nM.

Regarding `Oc1cc(-c2ncc3c(N4C[C@H]5CC[C@@H](C4)N5)nc(OCCN4CCOCC4)nc3c2F)c2ccccc2c1` [Example 25, 4-(4-((1R,5S)-3,8-diazabicyclo[3.2.1]octan-3-yl)-8-fluoro-2-(2-morpholinoethoxy)pyrido[4,3-d]pyrimidin-7-yl)naphthalen-2-ol], the Kd on KRas G12D [1] worked out at 270 nM. In addition, the IC50 at KRas G12D [2] turned out to be 338 nM.

`Fc1c(-c2cccc3cccc(Cl)c23)ncc2c(N3C[C@H]4CC[C@@H](C3)N4)nc(OCC34CCCCN3CCC4)nc12` (stereo partly drawn) [Example 54, 4-((1R,5S)-3,8-diazabicyclo[3.2.1]octan-3-yl)-7-(8-chloronaphthalen-1-yl)-8-fluoro-2-((hexahydroindolizin-8a(1H)-yl)methoxy)pyrido[4,3-d]pyrimidine] came in with a Kd on KRas G12D [1] of 118 nM. The compound also registered an IC50 on KRas G12D [2] of 68.7 nM.

Regarding `CN1CCC[C@H]1COc1nc(N2C[C@H]3CC[C@@H](C2)N3)c2cnc(-c3cccc4c3C(C)(C)CC4)c(F)c2n1` [Example 161, 4-((1R,5S)-3,8-diazabicyclo[3.2.1]octan-3-yl)-7-(3,3-dimethyl-2,3-dihydro-1H-inden-4-yl)-8-fluoro-2-(((S)-1-methylpyrrolidin-2-yl)methoxy)pyrido[4,3-d]pyrimidine bis(2,2,2-trifluoroacetate)], at KRas G12D [1], the Kd turned out to be 403 nM. This compound also showed an IC50 at KRas G12D [2] of 273 nM.

On KRas G12D [1], `CN(C)C1CN(c2nc(N3C[C@H]4CC[C@@H](C3)N4)c3cnc(-c4cccc5cccc(Cl)c45)c(F)c3n2)C1` [Example 122, 1-(4-((1R,5S)-3,8-diazabicyclo[3.2.1]octan-3-yl)-7-(8-chloronaphthalen-1-yl)-8-fluoropyrido[4,3-d]pyrimidin-2-yl)-N,N-dimethylazetidin-3-amine] displayed a dissociation constant Kd of 3420 nM. This compound returned an IC50 at KRas G12D [2] of 3270 nM.

On KRas G12D [1], `Fc1c(-c2cccc3cccc(Cl)c23)ncc2c(N3C[C@H]4CC[C@@H](C3)N4)nc(OCCc3cccnc3)nc12` [Example 113, 4-((1R,5S)-3,8-diazabicyclo[3.2.1]octan-3-yl)-7-(8-chloronaphthalen-1-yl)-8-fluoro-2-(2-(pyridin-3-yl)ethoxy)pyrido[4,3-d]pyrimidine] registered a Kd of 2500 nM. On KRas G12D [2], this compound yielded an IC50 of 2870 nM.

For the compound `CC1CCc2cccc(-c3ncc4c(N5CC6CCC(C5)N6)nc(OC[C@@H]5CCCN5C)nc4c3F)c21` (stereo partly drawn) [Example 174, 4-((1R,5S)-3,8-diazabicyclo[3.2.1]octan-3-yl)-8-fluoro-7-(3-methyl-2,3-dihydro-1H-inden-4-yl)-2-(((S)-1-methylpyrrolidin-2-yl)methoxy)pyrido[4,3-d]pyrimidine], the Kd on KRas G12D [1] is 186 nM. In addition, the IC50 at KRas G12D [2] turned out to be 63.9 nM.

Turning to `Oc1cc(-c2ncc3c(N4C[C@H]5CC[C@@H](C4)N5)nc(OCC4CCCC4)nc3c2F)c2ccccc2c1` [Example 73, 4-(4-((1R,5S)-3,8-diazabicyclo[3.2.1]octan-3-yl)-2-(cyclopentylmethoxy)-8-fluoropyrido[4,3-d]pyrimidin-7-yl)naphthalen-2-ol], at KRas G12D [1], binding was put at a Kd of 667000 nM. This compound gave an IC50 at KRas G12D [2] of 573 nM.

At KRas G12D [1], `Cn1cncc1CCOc1nc(N2C[C@H]3CC[C@@H](C2)N3)c2cnc(-c3cc(O)cc4ccccc34)c(F)c2n1` [Example 110, 4-(4-((1R,5S)-3,8-diazabicyclo[3.2.1]octan-3-yl)-8-fluoro-2-(2-(1-methyl-1H-imidazol-5-yl)ethoxy)pyrido[4,3-d]pyrimidin-7-yl)naphthalen-2-ol] registered a Kd of 42.3 nM. Also, the IC50 at KRas G12D [2] worked out at 57.5 nM.

On to `CN1CC(COc2nc(N3C[C@H]4CC[C@@H](C3)N4)c3cnc(-c4cccc5cccc(Cl)c45)c(F)c3n2)CC1=O` (stereo partly drawn) [Example 131, 4-(((4-((1R,5S)-3,8-diazabicyclo[3.2.1]octan-3-yl)-7-(8-chloronaphthalen-1-yl)-8-fluoropyrido[4,3-d]pyrimidin-2-yl)oxy)methyl)-1-methylpyrrolidin-2-one], for which the affinity at KRas G12D [1], expressed as Kd, was 1550 nM. Besides, at KRas G12D [2], the IC50 is 424 nM.

Consider `CC1(N)CN(c2nc(N3C[C@H]4CC[C@@H](C3)N4)c3cnc(-c4cc(O)cc5ccccc45)c(F)c3n2)C1` [Example 124, 4-(2-(3-amino-3-methylazetidin-1-yl)-4-((1R,5S)-3,8-diazabicyclo[3.2.1]octan-3-yl)-8-fluoropyrido[4,3-d]pyrimidin-7-yl)naphthalen-2-ol], for which, at KRas G12D [1], the Kd amounted to 22.7 nM. On KRas G12D [2], the IC50 is 8.6 nM.

With `Cn1ccnc1CCOc1nc(N2C[C@H]3CC[C@@H](C2)N3)c2cnc(-c3cccc4ccccc34)c(F)c2n1` [Example 94, 4-((1R,5S)-3,8-diazabicyclo[3.2.1]octan-3-yl)-8-fluoro-2-(2-(1-methyl-1H-imidazol-2-yl)ethoxy)-7-(naphthalen-1-yl)pyrido[4,3-d]pyrimidine], at KRas G12D [1], the Kd came out at 7460 nM. The IC50 on KRas G12D [2] was determined as 3650 nM.

As to `OCCOc1nc(N2C[C@H]3CC[C@@H](C2)N3)c2cnc(-c3cc(O)cc4ccccc34)c(F)c2n1` [Example 69, 4-(4-((1R,5S)-3,8-diazabicyclo[3.2.1]octan-3-yl)-8-fluoro-2-(2-hydroxyethoxy)pyrido[4,3-d]pyrimidin-7-yl)naphthalen-2-ol], on KRas G12D [1], the equilibrium dissociation constant (Kd) was 522 nM. For the same compound, at KRas G12D [2], the IC50 came out at 530 nM.

As for `Cc1cccc(CCOc2nc(N3C[C@H]4CC[C@@H](C3)N4)c3cnc(-c4cc(O)cc5ccccc45)c(F)c3n2)n1` [Example 87, 4-(4-((1R,5S)-3,8-diazabicyclo[3.2.1]octan-3-yl)-8-fluoro-2-(2-(6-methylpyridin-2-yl)ethoxy)pyrido[4,3-d]pyrimidin-7-yl)naphthalen-2-ol], binding at KRas G12D [1] was put at a Kd of 196 nM. Further, on KRas G12D [2], the IC50 came out at 536 nM.

Compound `CC(=O)N1CCC(Oc2nc(N3C[C@H]4CC[C@@H](C3)N4)c3cnc(-c4cc(O)cc5ccccc45)c(F)c3n2)CC1` [Example 78, 1-(4-((4-((1R,5S)-3,8-diazabicyclo[3.2.1]octan-3-yl)-8-fluoro-7-(3-hydroxynaphthalen-1-yl)pyrido[4,3-d]pyrimidin-2-yl)oxy)piperidin-1-yl)ethan-1-one] gave a dissociation constant Kd on KRas G12D [1] of 368 nM. On KRas G12D [2], this compound gave an IC50 of 358 nM.

For `CO[C@@H]1CN2CCC[C@]2(COc2nc(N3C[C@H]4CC[C@@H](C3)N4)c3cnc(-c4cccc5cccc(Cl)c45)c(F)c3n2)C1` [Example 219, 4-((1R,5S)-3,8-diazabicyclo[3.2.1]octan-3-yl)-7-(8-chloronaphthalen-1-yl)-8-fluoro-2-((2-methoxytetrahydro-1H-pyrrolizin-7a(5H)-yl)methoxy)pyrido[4,3-d]pyrimidine bis-hydrochloride], the Kd on KRas G12D [1] was 8.1 nM. The IC50 on KRas G12D [2] amounted to 8.1 nM.

`Oc1cc(-c2ncc3c(N4C[C@H]5CC[C@@H](C4)N5)nc(OC[C@@H]4CCCN4)nc3c2F)c2ccccc2c1` [Example 50, 4-(4-((1R,5S)-3,8-diazabicyclo[3.2.1]octan-3-yl)-8-fluoro-2-(((S)-pyrrolidin-2-yl)methoxy)pyrido[4,3-d]pyrimidin-7-yl)naphthalen-2-ol] registered a dissociation constant Kd on KRas G12D [1] of 2.1 nM. The IC50 at KRas G12D [2] was 2.5 nM.

`CN1C[C@H](F)C[C@H]1COc1nc(N2C[C@H]3CC[C@@H](C2)N3)c2cnc(-c3cc(O)cc4ccccc34)c(F)c2n1` [Example 16, 4-(4-((1R,5S)-3,8-diazabicyclo[3.2.1]octan-3-yl)-8-fluoro-2-(((2S,4R)-4-fluoro-1-methylpyrrolidin-2-yl)methoxy)pyrido[4,3-d]pyrimidin-7-yl)naphthalen-2-ol] returned a Kd at KRas G12D [1] of 31.3 nM. For the same compound, at KRas G12D [2], the IC50 came to 54.1 nM.

`OC[C@@H]1CCN1c1nc(N2C[C@H]3CC[C@@H](C2)N3)c2cnc(-c3cc(O)cc4ccccc34)c(F)c2n1` [Example 121, 4-(4-((1R,5S)-3,8-diazabicyclo[3.2.1]octan-3-yl)-8-fluoro-2-((S)-2-(hydroxymethyl)azetidin-1-yl)pyrido[4,3-d]pyrimidin-7-yl)naphthalen-2-ol 2,2,2-trifluoroacetate]: binding at KRas G12D [1] was put at a Kd of 197 nM. In addition, the IC50 on KRas G12D [2] turned out to be 204 nM.

The compound `CCC1(N)CN(c2nc(N3C[C@H]4CC[C@@H](C3)N4)c3cnc(-c4cc(O)cc5ccccc45)c(F)c3n2)C1` [Example 126, 4-(2-(3-amino-3-ethylazetidin-1-yl)-4-((1R,5S)-3,8-diazabicyclo[3.2.1]octan-3-yl)-8-fluoropyrido[4,3-d]pyrimidin-7-yl)naphthalen-2-ol] registered a Kd on KRas G12D [1] of 16.1 nM. Moreover, the IC50 at KRas G12D [2] is 9.9 nM.

Regarding `Fc1c(-c2cccc3cccc(Cl)c23)ncc2c(N3CC4CCC(C3)N4)nc(OC[C@@]34CCCN3C[C@H](F)C4)nc12` (stereo in doubt) [Example 134, 4-((1R,5S)-3,8-diazabicyclo[3.2.1]octan-3-yl)-7-(8-chloronaphthalen-1-yl)-8-fluoro-2-((2-fluorotetrahydro-1H-pyrrolizin-7a(5H)-yl)methoxy)pyrido[4,3-d]pyrimidine], at KRas G12D [1], the dissociation constant Kd amounted to 6.9 nM. At KRas G12D [2], this compound returned an IC50 of 3.7 nM.
